Assay results: patent publication US20240389593A1, “HETEROCYCLIC COMPOUND AND USE THEREOF” (KUMIAI CHEMICAL INDUSTRY CO., LTD., priority 2021, published 2024)

Assays:
Assay type in all cases: in vivo
[1] = tested on: Plutella xylostella; experiment: Test on insecticidal activity in Plutella xylostella (cabbage leaf dip); details: foliar, 144 h, 500 ppm active ingredient (wettable powder diluted with water), cabbage leaves dipped, second-instar larvae, 25° C., 6 days after treatment
Experimental: A wettable powder prepared according to formulation example 2 was diluted with water to a concentration of 500 ppm as the active ingredient. Some cabbage leaves were dipped in the drug solution, air-dried, and then placed in a plastic cup. Ten second-instar larvae of Plutella xylostella were put on the treated leaves, and the cup was covered with a lid. Then, it was placed in a room at constant temperature of 25° C. The number of dead insects was investigated at 6 days after treatment. Mortality rate was calculated using the formula 1. The number of replication was one in each test.

[2] = tested on: Helicoverpa armigera; experiment: Test on insecticidal activity in Helicoverpa armigera (cabbage leaf dip); details: foliar, 144 h, 500 ppm active ingredient (wettable powder diluted with water), cabbage leaves dipped, hatching larvae, 25° C., 6 days after treatment
Experimental: A wettable powder prepared according to formulation example 2 was diluted with water to a concentration of 500 ppm as the active ingredient. Some cabbage leaves were dipped in the drug solution, air-dried, and then placed in a plastic cup. Five hatching larvae of Helicoverpa armigera were put on the treated leaves, and the cup was covered with a lid. Then, it was placed in a room at constant temperature of 25° C. The number of dead insects was investigated at 6 days after the treatment. Mortality rate was calculated using the formula 1. The number of replication was two in each test.

[3] = tested on: Nilaparvata lugens; experiment: Test on insecticidal activity in Nilaparvata lugens (rice sprout dip); details: 144 h, 500 ppm active ingredient (wettable powder diluted with water), rice sprouts dipped, second-instar larvae, 25° C., 6 days after treatment
Experimental: A wettable powder prepared according to formulation example 2 was diluted with water to a concentration of 500 ppm as the active ingredient. Some rice sprouts were dipped in the drug solution and placed in a plastic cup. Ten second-instar larvae of Nilaparvata lugens were put on the treated leaves, and the cup was covered with a lid. Then, it was placed in a constant room temperature of 25° C. The number of dead insects was investigated at 6 days after the treatment. Mortality rate was calculated using the formula 1. The number of replication was one in each test.

[4] = tested on: Aphis gossypii; experiment: Test on pest control effect in Aphis gossypii (cucumber nursery plant dip); details: 72 h, 500 ppm active ingredient (wettable powder diluted with water), cucumber nursery plants inoculated with larvae dipped, 25° C., 3 days after treatment
Experimental: [Test example 4] Test on pest control effect in Aphis gossypii A wettable powder prepared according to formulation example 2 was diluted with water to a concentration of 500 ppm as the active ingredient. Some nursery plant of cucumber previously inoculated with larvae of Aphis gossypii were dipped in the drug solution and air-dried. The treated nursery plants of cucumber were placed in a room at constant temperature of 25° C. The number of surviving insects was counted at 3 days after the treatment. Mortality rate was calculated using the formula 1. The number of replication was one in each test.

Measured: mortality at 500 ppm

CCS(=O)(=O)c1c(-n2cc(OCC(F)(F)C(F)(F)C(F)(F)F)cn2)nc2ccc(Br)cn12 [A-0039, 6-bromo-3-(ethylsulfonyl)-2-[4-(2,2,3,3,4,4,4-heptafluorobutoxy)-1H-pyrazol-1-yl] imidazo [1,2-a] pyridine]
≥ 90%: all assays above

CCS(=O)(=O)c1c(-n2cc(OCC(F)(F)C(F)(F)C(F)(F)F)cn2)nc2ccc(C(F)(F)F)cn12 [A-0046, 3-(ethylsulfonyl)-2-[4-(2,2,3,3,4,4,4-heptafluorobutoxy)-1H-pyrazol-1-yl]-6-(trifluoromethyl)imidazo[1,2-a]pyridine]
≥ 90%: all assays above

CCS(=O)(=O)c1c(-n2cc(OCC(F)(F)C(F)(F)C(F)(F)F)cn2)nc2ccc(C3CC3)cn12 [A-0049, 6-cyclopropyl-3-(ethylsulfonyl)-2-[4-(2,2,3,3,4,4,4-heptafluorobutoxy)-1H-pyrazol-1-yl] imidazo [1,2-a] pyridine]
≥ 90%: all assays above
